What was measured:
EGFR tyrosine kinase = target: T1, EGFR tyrosine kinase (Homo sapiens, UniProt P00533); assay: Test (a) protein tyrosine kinase phosphorylation assay, EGFR; format: biochemical; conditions: recombinant intracellular fragment, ATP at Km; read-out: IC50 Test (a): Inhibition of EGFR tyrosine kinase protein phosphorylation
T1 construct: Recombinant intracellular fragments of EGFR, erbB2 and erbB4; made in house; host or cells: baculovirus/Sf21 insect cells (cleared lysate used)
Description: (§1) a) Protein Tyrosine Kinase phosphorylation Assays
(§2) This test measures the ability of a test compound to inhibit the phosphorylation of a tyrosine containing polypeptide substrate by EGFR, erbB2 and erbB4 tyrosine kinase enzyme.
(§3) Recombinant intracellular fragments of EGFR, erbB2 and erbB4 (accession numbers X00588, X03363 and L07868 respectively) were cloned and expressed in the baculovirus/Sf21 system. […]
(§4) Constitutive kinase activity of these recombinant proteins was determined by their ability to phosphorylate a synthetic peptide (made up of a random co-polymer of Glutamic Acid, Alanine and Tyrosine in the ratio of 6:3:1). […]
(§5) The immobilised phospho-peptide product of the reaction was detected by immunological methods. […] After further washing, HRP activity in each well of the plate was measured […] using 22′-Azino-di-[3-ethylbenzthiazoline sulfonate (6)] diammonium salt crystals (ABTS™ from Roche) as a substrate.
(§6) Quantification of colour development and thus enzyme activity was achieved by the measurement of absorbance at 405 nm on a Molecular Devices ThermoMax microplate reader. Kinase inhibition for a given compound was expressed as an IC50 value. […] The range of phosphorylation was calculated from the positive (vehicle plus ATP) and negative (vehicle minus ATP) control values.

erbB2 tyrosine kinase = target: T2, erbB2 tyrosine kinase (Homo sapiens, UniProt P04626); assay: Test (a) protein tyrosine kinase phosphorylation assay, erbB2; format: biochemical; conditions: recombinant intracellular fragment, ATP at Km; read-out: IC50 Test (a): Inhibition of erbB2 tyrosine kinase protein phosphorylation
T2 construct: Recombinant intracellular fragments of EGFR, erbB2 and erbB4; made in house; host or cells: baculovirus/Sf21 insect cells (cleared lysate used)
Description: as §1, §2, §3, §4, §5, §6

BT474C cells = assay: Test (e) BT474C cell proliferation assay; format: cell-based; conditions: Homo sapiens, 96 h, four-day MTS endpoint, read-out: IC50 Test (e): Inhibition of proliferation of BT474C cells
Text: The BT-474 tumour cell line (human mammary carcinoma) was obtained from Dr Baselga (at Laboratorio Recerca Oncologica, Paseo Vall D'Hebron 119-129, Barcelona 08035, Spain). This cell line was subcloned and a certain population (hereinafter referred to as “BT474C”) was obtained.
e) BT474C Cell Proliferation Assay
BT474C cells are a sub-cloned population of in vivo competent cells, as discussed above.
The BT474C assay is a MTS (3-(4,5-dimethylthiazol-2-yl)-5-(3-carboxymethoxyphenyl)-2-(4-sulfophenyl)-2H-tetrazolium, inner salt—Promega G1111) endpoint-based cell proliferation assay, which measures the ability of a test compound to inhibit the proliferation of cells over a four-day period. […] Cell density is measured using a haemocytometer and viability is calculated using Trypan Blue solution before being further diluted in Assay Medium and seeded at a density of 1×10^4 cells per well (in 100 ul) into clear bottomed 96 well plates (Costar 3598). […] The plate is read at 490 nm on a spectrophotometer.
Assay plates are left at 37° C. for 4 days and then treated with MTS solution (as above), which is converted to a soluble formazan product by active cells. After incubating the plates for 2 hours the reaction is stopped by the addition of 10% SDS (Sodium dodecyl sulphate) and the plates are read at 490 nm on a spectrophotometer giving absorbance values relative to the concentration of converted dye. […]

T1 sequence (P00533 669-1210 limits assumed): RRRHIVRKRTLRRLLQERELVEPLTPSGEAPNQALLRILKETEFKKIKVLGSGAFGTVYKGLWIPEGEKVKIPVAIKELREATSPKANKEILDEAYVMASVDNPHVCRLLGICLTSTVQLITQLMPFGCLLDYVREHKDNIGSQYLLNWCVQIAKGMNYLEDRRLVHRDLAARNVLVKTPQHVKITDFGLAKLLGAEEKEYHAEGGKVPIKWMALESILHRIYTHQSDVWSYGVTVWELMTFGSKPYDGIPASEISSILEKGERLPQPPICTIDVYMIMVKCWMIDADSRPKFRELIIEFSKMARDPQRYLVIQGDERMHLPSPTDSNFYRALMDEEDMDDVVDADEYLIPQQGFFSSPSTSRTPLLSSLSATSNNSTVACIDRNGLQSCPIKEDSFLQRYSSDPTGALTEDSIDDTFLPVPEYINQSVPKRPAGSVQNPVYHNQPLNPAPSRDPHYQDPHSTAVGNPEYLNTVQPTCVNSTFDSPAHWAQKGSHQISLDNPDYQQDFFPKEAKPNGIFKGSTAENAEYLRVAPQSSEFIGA
T2 sequence (P04626 676-1255 limits assumed): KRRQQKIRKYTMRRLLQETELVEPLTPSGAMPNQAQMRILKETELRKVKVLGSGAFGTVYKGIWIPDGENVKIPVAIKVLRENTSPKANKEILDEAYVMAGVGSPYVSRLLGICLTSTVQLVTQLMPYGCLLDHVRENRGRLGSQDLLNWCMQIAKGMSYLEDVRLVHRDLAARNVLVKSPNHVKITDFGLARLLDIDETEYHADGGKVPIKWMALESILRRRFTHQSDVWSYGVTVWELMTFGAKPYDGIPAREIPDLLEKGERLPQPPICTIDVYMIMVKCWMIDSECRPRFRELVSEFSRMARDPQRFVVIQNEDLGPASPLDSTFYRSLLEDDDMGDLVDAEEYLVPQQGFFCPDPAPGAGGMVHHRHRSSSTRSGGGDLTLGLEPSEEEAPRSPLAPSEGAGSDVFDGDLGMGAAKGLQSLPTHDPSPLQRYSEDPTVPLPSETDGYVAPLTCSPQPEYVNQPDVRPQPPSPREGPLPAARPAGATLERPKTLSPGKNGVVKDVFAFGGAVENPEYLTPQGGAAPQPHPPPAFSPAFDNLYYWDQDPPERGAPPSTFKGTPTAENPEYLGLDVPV

Compound	IC50 (EGFR tyrosine kinase) [nM]	IC50 (erbB2 tyrosine kinase) [nM]	IC50 (BT474C cells) [nM]
C[C@@H](Oc1cccc2ncnc(Nc3ccc(C(=O)N4CCCCCC4)c(Cl)c3)c12)C(=O)N(C)CCO [Example 1, (2R)-2-[(4-{[4-(azepan-1-ylcarbonyl)-3-chlorophenyl]amino}quinazolin-5-yl)oxy]-N-(2-hydroxyethyl)-N-methylpropanamide]	333	15	179
C[C@@H](Oc1cccc2ncnc(Nc3ccc(C(=O)N4CCCCC4)c(Cl)c3)c12)C(=O)N(C)CCO [Example 2, (2R)-2-[(4-{[3-chloro-4-(piperidin-1-ylcarbonyl)phenyl]amino}quinazolin-5-yl)oxy]-N-(2-hydroxyethyl)-N-methylpropanamide]	869	22	857

Source: patent publication US20090029968A1, “QUINAZOLINE DERIVATIVES USED AS INHIBITORS OF ERBB TYROSINE KINASE” (priority 2005, published 2009)
